The test system of the test is P388 leukemia ip, CD2F1 mice, survival T/C. The test is described as follows: NCI In Vivo Anticancer Drug Screen. Data for tumor model P388 Leukemia (intraperitoneal) in CD2F1 (CDF1) mice. Particulars: endpoint: median survival time, higher = longer survival. The procedure, abridged: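 Mice carrying the transplanted tumor received test compound or vehicle. Survival was recorded in each group, and the value is the treated-group measurement divided by that of the vehicle-treated control group.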

The mark [1] stands for this setting: dose: 60.0 mg/kg/injection, schedule: Q01DX005 (ip), vehicle: saline with Tween-80.
Where [2] appears, read: dose: 120.0 mg/kg/injection, schedule: Q01DX005 (ip), vehicle: saline with Tween-80.
Setting [3] is: dose: 240.0 mg/kg/injection, schedule: Q01DX005 (ip), vehicle: saline with Tween-80.
The mark [4] stands for this setting: dose: 50.0 mg/kg/injection, schedule: Q01DX005 (ip), vehicle: saline with Tween-80.
Where [5] appears, read: dose: 100.0 mg/kg/injection, schedule: Q01DX009 (ip), vehicle: saline with Tween-80.
Where [6] appears, read: dose: 200.0 mg/kg/injection, schedule: Q01DX009 (ip), vehicle: saline with Tween-80.
Setting [7] is: dose: 25.0 mg/kg/injection, schedule: Q01DX009 (ip), vehicle: saline with Tween-80.

Values joined by “and” are separate entries in the source; they are usually repeats but may differ in a detail not shown here. Equal values may be shown once. Toxic doses and inconclusive results are not listed.

Turning to `CS(=O)(=O)OCCN1C(=O)CNC1=O`, the T/C was 99 % of control (dose: 12.5 mg/kg/injection, schedule: Q04DX003 (ip), vehicle: saline); 106 % of control (dose: 25.0 mg/kg/injection, schedule: Q04DX003 (ip), vehicle: saline); 99 % of control (dose: 50.0 mg/kg/injection, schedule: Q04DX003 (ip), vehicle: saline); 101 % of control (dose: 100.0 mg/kg/injection, schedule: Q04DX003 (ip), vehicle: saline); 101 % of control (dose: 200.0 mg/kg/injection, schedule: Q04DX003 (ip), vehicle: saline); 99 % of control (dose: 400.0 mg/kg/injection, schedule: Q04DX003 (ip), vehicle: saline).
For the molecule `N#Cc1c(-c2nc3ccccc3s2)c(=O)oc2cc(O)ccc12`, the T/C runs as follows: under setting [1], 99 % of control; under setting [2], 95 % of control; under setting [3], 95 % of control.
As to `O=c1/c(=C/c2ccccc2)sc2nc(-c3ccccc3)nn12`, the T/C (dose: 12.5 mg/kg/injection, schedule: Q01DX009 (ip), vehicle: Klucel (hydroxypropylcellulose) (HPC)) is 87 % of control; the T/C (dose: 25.0 mg/kg/injection, schedule: Q01DX009 (ip), vehicle: Klucel (hydroxypropylcellulose) (HPC)) is 88 % of control; the T/C (dose: 50.0 mg/kg/injection, schedule: Q01DX009 (ip), vehicle: Klucel (hydroxypropylcellulose) (HPC)) was 89 % of control and 91 % of control; the T/C (dose: 100.0 mg/kg/injection, schedule: Q01DX009 (ip), vehicle: Klucel (hydroxypropylcellulose) (HPC)) is 107 % of control; the T/C (dose: 200.0 mg/kg/injection, schedule: Q01DX009 (ip), vehicle: Klucel (hydroxypropylcellulose) (HPC)) was 107 % of control.
`c1ccc2c(c1)c1c(c3ccccc32)CNCC1`: the T/C was 97 % of control (dose: 3.12 mg/kg/injection, schedule: Q01DX005 (ip), vehicle: saline with Tween-80); 95 % of control (dose: 6.25 mg/kg/injection, schedule: Q01DX005 (ip), vehicle: saline with Tween-80); 101 % of control and 95 % of control (dose: 12.5 mg/kg/injection, schedule: Q01DX005 (ip), vehicle: saline with Tween-80); 117 % of control under setting [4].
Take `N#Cc1c2ccccc2c(=O)n2ccccc12`: the T/C is, setting by setting: (dose: 100.0 mg/kg/injection, schedule: Q04DX002 (ip), vehicle: Klucel (hydroxypropylcellulose) (HPC)) 94 % of control; (dose: 200.0 mg/kg/injection, schedule: Q04DX002 (ip), vehicle: Klucel (hydroxypropylcellulose) (HPC)) 88 % of control; (dose: 400.0 mg/kg/injection, schedule: Q04DX002 (ip), vehicle: Klucel (hydroxypropylcellulose) (HPC)) 94 % of control.
On to `Cc1cc(-c2nc(-c3cc(C)c(O)c(C)c3)nc(-c3cc(C)c(O)c(C)c3)n2)cc(C)c1O`, for which the T/C is, setting by setting: (dose: 50.0 mg/kg/injection, schedule: Q04DX003 (ip), vehicle: Klucel (hydroxypropylcellulose) (HPC)) 100 % of control; (dose: 100.0 mg/kg/injection, schedule: Q04DX003 (ip), vehicle: Klucel (hydroxypropylcellulose) (HPC)) 106 % of control; (dose: 200.0 mg/kg/injection, schedule: Q04DX003 (ip), vehicle: Klucel (hydroxypropylcellulose) (HPC)) 105 % of control.
Regarding `O=C(CCC(=O)Nc1cc(Cl)ccc1Cl)CC(=O)c1ccc([N+](=O)[O-])cc1`, the T/C is 98 % of control under setting [1], 100 % of control under setting [2] and 109 % of control under setting [3].
`CCCCOC(=O)C(CC)c1ccccc1` (stereo not given): the T/C was 114 % of control (dose: 100.0 mg/kg/injection, schedule: Q04DX003 (ip), vehicle: saline with Tween-80); 114 % of control (dose: 200.0 mg/kg/injection, schedule: Q04DX003 (ip), vehicle: saline with Tween-80); 112 % of control (dose: 400.0 mg/kg/injection, schedule: Q04DX003 (ip), vehicle: saline with Tween-80).
As for `CCOC(=O)C(C(=O)OCC)C1CCS(=O)(=O)C1` (stereo not given), the T/C is, setting by setting: under setting [5], 109 % of control; under setting [6], 104 % of control; (dose: 400.0 mg/kg/injection, schedule: Q01DX009 (ip), vehicle: saline with Tween-80) 104 % of control.
Regarding `CC1CC(c2ccc3ccccc3c2)NCCNC(c2ccc3ccccc3c2)CC(C)NCCN1` (stereo not given), the T/C by setting is: (dose: 0.09 mg/kg/injection, schedule: Q01DX009 (ip), vehicle: saline) 100 % of control; (dose: 0.18 mg/kg/injection, schedule: Q01DX009 (ip), vehicle: saline) 103 % of control; (dose: 0.36 mg/kg/injection, schedule: Q01DX009 (ip), vehicle: saline) 102 % of control; (dose: 3.12 mg/kg/injection, schedule: Q01DX009 (ip), vehicle: saline) 101 % of control; (dose: 12.5 mg/kg/injection, schedule: Q01DX009 (ip), vehicle: saline) 101 % of control.
In the case of `C=C(C)C1C/C=C(\C)CC/C=C(\C)CC/C=C(\C)CC1` (stereo not given), the T/C was 93 % of control (dose: 18.75 mg/kg/injection, schedule: Q01DX009 (ip), vehicle: saline + Tween-80 + alcohol); 101 % of control (dose: 37.5 mg/kg/injection, schedule: Q01DX009 (ip), vehicle: saline + Tween-80 + alcohol); 102 % of control (dose: 75.0 mg/kg/injection, schedule: Q01DX009 (ip), vehicle: saline + Tween-80 + alcohol); 99 % of control (dose: 150.0 mg/kg/injection, schedule: Q01DX009 (ip), vehicle: saline + Tween-80 + alcohol).
For `O=C1c2ccccc2CCC12OC2c1ccc([N+](=O)[O-])cc1` (stereo not given), the T/C (dose: 25.0 mg/kg/injection, schedule: Q01DX005 (ip), vehicle: saline with Tween-80) is 100 % of control; the T/C under setting [4] is 106 % of control; the T/C (dose: 100.0 mg/kg/injection, schedule: Q01DX005 (ip), vehicle: saline with Tween-80) was 110 % of control; the T/C (dose: 200.0 mg/kg/injection, schedule: Q01DX005 (ip), vehicle: saline with Tween-80) is 106 % of control.
`CCCN(CCC)/N=C/c1c2c(O)c3c(O)c(C)c4c(c3c1O)C(=O)C(C)(O/C=C/C(OC)C(C)C(OC(C)=O)C(C)C(O)C(C)C(O)C(C)/C=C/C=C(C)C(=O)N2)O4` (stereo not given): the T/C (dose: 60.0 mg/kg/injection, schedule: Q01DX005 (ip), vehicle: Klucel (hydroxypropylcellulose) (HPC)) is 110 % of control and the T/C (dose: 120.0 mg/kg/injection, schedule: Q01DX005 (ip), vehicle: Klucel (hydroxypropylcellulose) (HPC)) was 122 % of control.
On to `O=CNc1nc[nH]c1-c1noc(=O)[nH]1`, for which the T/C is 104 % of control (dose: 25.0 mg/kg/injection, schedule: Q04DX002 (ip), vehicle: saline); 104 % of control (dose: 50.0 mg/kg/injection, schedule: Q04DX002 (ip), vehicle: saline); 104 % of control and 110 % of control (dose: 100.0 mg/kg/injection, schedule: Q04DX002 (ip), vehicle: saline).
On to `CC(C)CC(NC1=CC(=O)N(c2ccccc2)C1c1ccccc1)c1nc2ccccc2[nH]1` (stereo not given), for which the T/C was 99 % of control (dose: 50.0 mg/kg/injection, schedule: Q01DX005 (ip), vehicle: Klucel (hydroxypropylcellulose) (HPC)); 95 % of control (dose: 100.0 mg/kg/injection, schedule: Q01DX005 (ip), vehicle: Klucel (hydroxypropylcellulose) (HPC)); 95 % of control (dose: 200.0 mg/kg/injection, schedule: Q01DX005 (ip), vehicle: Klucel (hydroxypropylcellulose) (HPC)).
With `COC(=O)C1(CC(=O)c2ccccc2)NC(=S)NC(=O)C1C#N` (stereo not given), the T/C runs as follows: under setting [1], 103 % of control; under setting [2], 98 % of control; under setting [3], 98 % of control.
As to `Cc1c2cc[n+]([O-])cc2c(C)c2c1oc1ccccc12`, the T/C runs as follows: under setting [7], 115 % of control; under setting [5], 154 % of control; under setting [6], 165 % of control and 173 % of control.
On to `Nc1nc(N)c2cc(CNc3ccc(C(=O)NC(CC(=O)O)CC(=O)O)cc3)ccc2n1`, for which the T/C is 203 % of control (dose: 12.5 mg/kg/injection, schedule: Q01DX009 (ip), vehicle: saline with Tween-80); 226 % of control under setting [7]; 168 % of control (dose: 100.0 mg/kg/injection, schedule: Q01DX009 (ip), vehicle: saline sonified); 99 % of control under setting [5]; 181 % of control (dose: 100.0 mg/kg/injection, schedule: Q04DX003 (ip), vehicle: saline sonified); 204 % of control (dose: 200.0 mg/kg/injection, schedule: Q01DX009 (ip), vehicle: saline sonified). The T/C was 87 % of control under setting [6]; 150 % of control (dose: 200.0 mg/kg/injection, schedule: Q04DX003 (ip), vehicle: saline sonified); 159 % of control (dose: 400.0 mg/kg/injection, schedule: Q01DX009 (ip), vehicle: saline sonified); 113 % of control (dose: 400.0 mg/kg/injection, schedule: Q04DX003 (ip), vehicle: saline sonified).

For the origin of these results see PubChem BioAssay AID330 (DTP/NCI, 2004).
